According to US12509423B2, “Compound, aldehyde dehydrogenase 2 activating agent, pharmaceutical composition, and therapeutic and/or prophylactic drug” (Alchemedicine, Inc., priority 2020, dated 2025):
pIC50: −log10 of the molar value.

Tests used:
[1] = target: T1, human recombinant ALDH2 enzyme (Homo sapiens, UniProt P05091); test: ALDH2 activation effect (acetaldehyde oxidation rate, PicoProbe Aldehyde dehydrogenase Activity Assay Kit); type: biochemical
T1 construct: purchased BioVision Inc
T1 sequence (P05091 18-517): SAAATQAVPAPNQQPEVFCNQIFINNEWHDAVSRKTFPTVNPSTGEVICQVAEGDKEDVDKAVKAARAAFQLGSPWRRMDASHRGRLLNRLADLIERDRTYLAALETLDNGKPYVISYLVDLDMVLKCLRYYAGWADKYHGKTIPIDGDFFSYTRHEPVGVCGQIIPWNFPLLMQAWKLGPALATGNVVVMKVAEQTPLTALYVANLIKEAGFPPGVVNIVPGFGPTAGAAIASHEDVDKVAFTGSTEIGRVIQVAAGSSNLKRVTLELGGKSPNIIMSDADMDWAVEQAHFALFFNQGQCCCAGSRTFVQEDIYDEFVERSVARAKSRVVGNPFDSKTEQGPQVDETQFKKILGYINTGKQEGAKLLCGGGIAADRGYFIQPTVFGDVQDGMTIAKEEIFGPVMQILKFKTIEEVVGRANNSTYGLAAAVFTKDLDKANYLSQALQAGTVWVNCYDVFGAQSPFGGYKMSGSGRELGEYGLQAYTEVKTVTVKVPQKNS
Procedure: The activation effect of each test compound on the acetaldehyde oxidation rate of ALDH2 was measured with the following method. A test was conducted by using a commercially available PicoProbe™ Aldehyde dehydrogenase Activity Assay Kit (manufactured by BioVision Inc.) with reference to an instruction attached to the product under the following conditions. To each well of a 384-well plate, the following (1) to (3) were sequentially added with a pipette: • (1) 10 μL of solution obtained by dissolving and diluting a human recombinant ALDH2 enzyme (manufactured by BioVision Inc.) with ALDH assay Buffer to reach 3-μg/mL; • (2) 10 μL of 30 μM or 90 μM test compound solution (with 3% DMSO) prepared by using ALDH assay Buffer; and • (3) 10 μL of Reaction mix composed with ratio of 8.6 μL of ALDH assay Buffer, 0.6 μL of PicoProbe, 0.3 μL of Substrate Mix, and 1.5 μL of Acetaldehyde.
Before addition of (3), incubation was performed at room temperature for 5 minutes. After addition of (3), fluorescence intensity was measured at room temperature every 2.5 minutes over a period of 180 minutes by using an EnSight (manufactured by PerkinElmer Inc.). Wavelengths of 535 nm and 587 nm were used for fluorescence intensities of excitation and -emission, respectively.

[2] = Metabolic stability with mouse hepatic microsomes; type: in vitro ADME; details: for Residual rate (%) of unchanged form: mouse hepatic microsomes, after 30 minutes, 37° C., NADPH
Procedure: Metabolic stability in mouse hepatic microsomes was evaluated with the following method.
• (1) Mouse hepatic microsomes: 20 mg/mL • (2) Test compound: 1.1 mM DMSO solution • (3) Potassium phosphate buffer solution: 66.7 mM (pH 7.4) • (4) NADPH solution: 10 mM in potassium phosphate buffer solution • (5) Quenching solution: 0.5% formic acid-acetonitrile solution with warfarin as internal standard substance 2. Method
Into a propylene tube, 971.5 μL of the potassium phosphate buffer solution and 27.5 μL of the mouse hepatic microsomes were put and suspended. Thereto, 1 μL of a test compound was added, and 180 μL was taken from this mixture and transferred into another tube. The mixture was preincubated at 37° C. for 5 minutes, and 20 μL of the NADPH solution (for the case with an incubation time of 30 minutes) or 20 μL of the potassium phosphate buffer solution (for the case with an incubation time of 0 minutes) was then added thereto. After incubation, 200 μL of the quenching solution was added to terminate the reaction. Subsequently, centrifugation was performed at 3220×g for 20 minutes, and the concentration of the unchanged form of the test compound in 200 μL of the supernatant was measured with LC-MS/MS. On the basis of the peak area obtained for the unchanged form, the residual rate (%) of the unchanged form was calculated as that for the case with an incubation time of 0 minutes was assumed as 100%.

[3] = target: hERG (human Ether-a-go-go Related Gene) channel (Homo sapiens, UniProt Q12809); test: hERG channel inhibition effect (whole-cell patch clamp); type: cell-based; details: 22 to 25° C.
Chain of hERG (human Ether-a-go-go Related Gene) channel (Q12809 whole entry): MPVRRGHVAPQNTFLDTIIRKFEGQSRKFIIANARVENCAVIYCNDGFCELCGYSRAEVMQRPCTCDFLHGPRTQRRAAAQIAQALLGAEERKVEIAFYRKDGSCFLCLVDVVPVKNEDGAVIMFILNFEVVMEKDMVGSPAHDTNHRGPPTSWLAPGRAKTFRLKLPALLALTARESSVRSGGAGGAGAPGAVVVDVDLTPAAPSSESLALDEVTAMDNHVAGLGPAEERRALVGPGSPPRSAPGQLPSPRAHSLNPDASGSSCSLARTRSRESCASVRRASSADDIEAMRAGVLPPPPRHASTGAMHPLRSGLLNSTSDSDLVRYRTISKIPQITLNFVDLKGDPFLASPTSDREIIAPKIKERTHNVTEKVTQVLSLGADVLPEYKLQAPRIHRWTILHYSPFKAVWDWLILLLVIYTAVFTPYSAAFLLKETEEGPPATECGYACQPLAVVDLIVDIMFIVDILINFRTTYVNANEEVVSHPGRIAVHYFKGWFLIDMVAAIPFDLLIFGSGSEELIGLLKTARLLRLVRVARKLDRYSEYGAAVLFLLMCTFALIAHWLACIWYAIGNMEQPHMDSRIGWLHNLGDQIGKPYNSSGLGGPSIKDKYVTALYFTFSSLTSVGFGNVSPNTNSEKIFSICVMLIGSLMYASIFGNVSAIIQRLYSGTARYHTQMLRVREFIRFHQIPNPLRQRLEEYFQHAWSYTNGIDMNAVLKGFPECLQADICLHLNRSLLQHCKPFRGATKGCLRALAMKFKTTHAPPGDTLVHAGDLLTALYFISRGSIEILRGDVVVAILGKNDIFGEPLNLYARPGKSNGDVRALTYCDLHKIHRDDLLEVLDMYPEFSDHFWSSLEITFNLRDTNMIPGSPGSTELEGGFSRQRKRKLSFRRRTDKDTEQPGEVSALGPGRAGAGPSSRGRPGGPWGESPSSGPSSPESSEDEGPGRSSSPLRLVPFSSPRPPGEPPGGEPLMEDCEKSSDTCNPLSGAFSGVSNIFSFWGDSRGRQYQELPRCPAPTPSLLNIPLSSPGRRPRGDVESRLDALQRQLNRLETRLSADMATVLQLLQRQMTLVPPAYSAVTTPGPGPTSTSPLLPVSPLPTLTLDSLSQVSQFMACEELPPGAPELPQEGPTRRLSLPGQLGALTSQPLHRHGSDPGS
Procedure: The hERG (human Ether-a-go-go Related Gene) channel inhibition effect of each test compound was examined with the following patch clamp method.
Under a fixed potential, an hERG current that passed through the whole cell membrane was recorded with the whole-cell patch clamp method.
To confirm the hERG current, the holding potential was set to −80 mV, and depolarizing pulses at −50 mV for 110 msec and at 20 mV for 4 sec and a subsequent repolarizing pulse at −50 mV for 2 sec were provided at a frequency of once per 15 seconds. After the stabilization of the hERG tail current obtained was confirmed, an application was initiated. The pulses were continuously provided also during the application.
The sampling frequency was set to 5 kHz, and Lowpass Filter was applied at 2 kHz. […]
hERG currents were measured by using an amplifier for patch clamping (Axopatch 200B, Molecular Devices, LLC), and electric signals obtained were recorded in a computer via recording/analysis software for patch clamping (pCLAMP 10, Molecular Devices, LLC).
The maximum tail current value was determined on the basis of the current value with the depolarizing pulse at −50 mV for 110 msec, and the change rate (suppression rate) 5 minutes after the initiation of application to the maximum tail current value before application of the test compound was calculated.

[4] = Metabolic stability with human hepatic microsomes; type: in vitro ADME; details: human hepatic microsomes 0.1 mg protein/mL, 0.1 μmol/L test compound, after 30 minutes, 37° C.
Procedure: The specific method is as follows.
• (1) Fifty microliter-portions were taken from 0.2 μmol/L test compound diluted with β-NADPH solution. • (2) Fifty microliters of 0.2 mg protein/mL human hepatic microsome solution was added to each (except for a sample with a reaction time of 0 minutes). • (3) Incubation was performed with shaking at 37° C. for 30 minutes (concentration in reaction sample: 0.1 μmol/L test compound, 0.1 mg protein/mL human hepatic microsome). • (4) After incubation, 400 μL of methanol was added to terminate the reaction. • (5) To the sample with a reaction time of 0 minutes, 50 μL of 0.2 mg protein/mL hepatic microsome solution was added. • (6) Each of the samples from (4) and (5) was left to stand at −20° C. for 30 minutes or longer, and then centrifuged at 4° C. and 3,000 rpm for approximately 10 minutes. • (7) The supernatant was subjected to measurement with LC/MS/MS, and, based on the peak area obtained for the unchanged form, the residual rate (%) of the unchanged form was calculated as that for the case with an incubation time of 0 minutes was assumed as 100%.

[5] = concentration of test compound 10 μM
[6] = concentration of test compound 30 μM

Row | Structure (SMILES) | acetaldehyde oxidation rate (rate with no test compound assumed as 100%) [1, 5] | acetaldehyde oxidation rate (rate with no test compound assumed as 100%) [1, 6] | metabolic stability in mouse hepatic microsomes (in words) [2] | Residual rate (%) of unchanged form [2] | pIC50 [3] | Residual rate (%) of unchanged form [4]
1 | COCc1ccc(CNC(=O)c2cc(-c3ncccc3C(C)O)ccc2F)cc1F (racemic) [Example 2, Racemic 2-fluoro-N-(3-fluoro-4-(methoxymethyl)benzyl)-5-(3-(1-hydroxyethyl)pyridin-2-yl)benzamide] | 127% | 166% | confirmed to have stability | 68% | < 4.52 | 87%
2 | COCc1ccc(CNC(=O)c2cc(-c3ncccc3C(C)O)ccc2F)cc1F (single isomer, unassigned) [Example 3, Chiral 2-fluoro-N-(3-fluoro-4-(methoxymethyl)benzyl)-5-(3-(1-hydroxyethyl)pyridin-2-yl)benzamide] | 137% | 176% |  | 64% |  | 
3 | COCc1ccc(CNC(=O)c2cc(-c3ncccc3C(C)O)ccc2F)cc1F (single isomer, unassigned) [Example 4, Chiral 2-fluoro-N-(3-fluoro-4-(methoxymethyl)benzyl)-5-(3-(1-hydroxyethyl)pyridin-2-yl)benzamide] | 131% | 155% |  | 60% |  | 
4 | O=C(NCc1ccc2c(c1)OCO2)c1c(Cl)cccc1Cl [Comparative Example 1, reference compound] | 149% | 176% |  | <1% |  | 
5 | COc1ccc(CNC(=O)c2cc(-c3ncccc3CO)ccc2OCC2CC2)cc1F [Comparative Example 2, reference compound] |  |  |  | 6% |  | 
6 | COCc1ccc(CNC(=O)c2c(Cl)cccc2Cl)cc1F [Comparative Example 3, reference compound] |  |  |  | 1% |  | 
7 | COCc1ccc(CNC(=O)c2c(F)cccc2Br)cc1F [Comparative Example 4, reference compound] |  |  |  | <1% |  | 
8 | COCc1ccc(CNC(=O)c2c(F)cccc2Cl)cc1F [Comparative Example 5, reference compound] |  |  |  | <1% |  | 
9 | COCc1ccc(CNC(=O)c2c(F)cccc2F)cc1F [Comparative Example 6, reference compound] |  |  |  | 1% |  | 
10 | CC(O)c1cccnc1-c1ccc(F)c(C(=O)NCc2ccc(COC(F)F)c(F)c2)c1 (stereo not drawn) [Example 5, N-(4-((Difluoromethoxy)methyl)-3-fluorobenzyl)-2-fluoro-5-(3-(1-hydroxyethyl)pyridin-2-yl)benzamide] | 124% | 146% | confirmed to have stability | 52% |  | 72%
11 | COCc1ccc(CNC(=O)c2cc(-c3ncccc3COC)ccc2F)cc1F [Example 6, 2-Fluoro-N-(3-fluoro-4-(methoxymethyl)benzyl)-5-(3-(methoxymethyl)pyridin-2-yl)benzamide] | 139% | 161% | confirmed to have stability | 24% |  | 75%
12 | COCc1ccc(CNC(=O)c2cc(-c3n[nH]cc3CO)ccc2Cl)cc1F [Example 7, 2-Chloro-N-(3-fluoro-4-(methoxymethyl)benzyl)-5-(4-(hydroxymethyl)-1H-pyrazol-3-yl)benzamide] | 157% | 170% |  | 74% |  | 
